The target in one assay is αvβ8 (Homo sapiens (Human), UniProt P06756+P26012). Briefly: αVβ8–LAP-TGF β1 integrin binding assay (integrin-coupled beads, flow cytometry). Particulars: ligand LAP TGF-β1. The source says: (§1) All αV Integrins are known to bind to proteins with a RGD motif. Two RGD ligands were used in this study: Vitronectin (VN) as a ligand for αVβ3 and αVβ5 (Wayner et al., J. Cell Biol., 113 (4), 919-929, 1991), and LAP TGF-β1 (LAP1) as a ligand for αVβ6 and αVβ8 (Rognoni et al., Nat. Med., 20(4): 350-359, 2014). CWHM12 was used as a positive control for αVβ6 and αVβ8 (Henderson et al., Nat. Med. 19(12), 10.1038/nm.3282 2013), and Cilengitide as a positive control for αVβ3 and αVβ5 (Kumar et al., J. Pharmacol. Exp. Ther., 283, 843-853, 1997).
Chain of αvβ8 (P06756 31-992): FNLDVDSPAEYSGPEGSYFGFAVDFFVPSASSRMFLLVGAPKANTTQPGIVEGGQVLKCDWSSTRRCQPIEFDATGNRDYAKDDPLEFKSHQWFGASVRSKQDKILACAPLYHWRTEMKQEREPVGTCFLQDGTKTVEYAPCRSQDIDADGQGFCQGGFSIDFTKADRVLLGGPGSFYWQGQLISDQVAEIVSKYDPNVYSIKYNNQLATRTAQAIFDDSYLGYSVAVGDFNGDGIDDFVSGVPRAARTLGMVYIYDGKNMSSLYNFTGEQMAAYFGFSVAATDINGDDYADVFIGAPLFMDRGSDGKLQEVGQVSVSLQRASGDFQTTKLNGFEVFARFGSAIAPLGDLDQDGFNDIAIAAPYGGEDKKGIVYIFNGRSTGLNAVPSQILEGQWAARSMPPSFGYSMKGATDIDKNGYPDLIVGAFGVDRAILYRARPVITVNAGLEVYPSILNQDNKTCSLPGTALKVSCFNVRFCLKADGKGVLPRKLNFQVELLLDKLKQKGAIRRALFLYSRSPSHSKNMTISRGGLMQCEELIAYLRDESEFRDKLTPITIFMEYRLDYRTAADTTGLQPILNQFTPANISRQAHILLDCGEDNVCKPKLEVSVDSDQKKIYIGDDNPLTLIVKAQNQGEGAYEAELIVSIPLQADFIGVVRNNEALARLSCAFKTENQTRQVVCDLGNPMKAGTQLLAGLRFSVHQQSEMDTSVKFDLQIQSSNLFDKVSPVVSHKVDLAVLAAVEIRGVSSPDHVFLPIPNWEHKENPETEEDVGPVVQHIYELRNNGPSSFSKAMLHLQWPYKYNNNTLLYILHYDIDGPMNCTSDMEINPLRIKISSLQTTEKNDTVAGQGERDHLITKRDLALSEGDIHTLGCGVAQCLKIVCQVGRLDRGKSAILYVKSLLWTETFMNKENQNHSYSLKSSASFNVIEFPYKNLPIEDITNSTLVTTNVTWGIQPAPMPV
Chain of αvβ8 (P26012 43-684): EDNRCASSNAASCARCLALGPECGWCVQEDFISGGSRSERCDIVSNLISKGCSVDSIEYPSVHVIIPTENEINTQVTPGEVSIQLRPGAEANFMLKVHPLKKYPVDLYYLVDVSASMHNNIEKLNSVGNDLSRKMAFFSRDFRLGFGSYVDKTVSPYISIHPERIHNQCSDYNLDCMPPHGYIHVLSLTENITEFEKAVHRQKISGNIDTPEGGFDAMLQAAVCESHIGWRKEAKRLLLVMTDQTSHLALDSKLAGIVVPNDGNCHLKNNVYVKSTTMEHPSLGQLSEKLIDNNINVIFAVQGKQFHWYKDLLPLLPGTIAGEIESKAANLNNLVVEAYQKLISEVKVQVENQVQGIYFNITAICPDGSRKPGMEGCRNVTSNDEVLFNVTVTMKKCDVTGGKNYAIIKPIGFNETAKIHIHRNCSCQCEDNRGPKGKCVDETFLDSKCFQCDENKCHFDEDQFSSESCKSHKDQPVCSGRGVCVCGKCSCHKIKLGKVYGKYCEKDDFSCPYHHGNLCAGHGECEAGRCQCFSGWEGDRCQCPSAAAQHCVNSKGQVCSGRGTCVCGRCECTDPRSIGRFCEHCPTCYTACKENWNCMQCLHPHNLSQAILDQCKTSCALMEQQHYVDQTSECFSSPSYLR
(§2) The integrin coupled Dyna beads were allowed to interact with respective ligands. The integrin-ligand complex was detected with either Primary/Secondary Antibody conjugated with Fluorescein Isothiocyanate (FITC). For αVβ3 and αVβ5, Vitronectin was used as a ligand and a primary antibody conjugated with FITC (Anti-VN-FITC Ab) was used to detect the interaction. For αVβ6 and αVβ8, LAP-TGF (31 was used as ligand and a primary antibody against LAP1 (Anti-LAP1 Ab) and a secondary antibody conjugated with FITC were used to detect the αVβ6/αVβ8-LAP-TGF (31 complex. Fluorescence was measured by Flow Cytometry analysis.
(§3) 5 mg of Dyna beads were weighed in a low protein binding microfuge (Eppendorf) tube (1.5 mL volume). The beads were re-suspended in 1 mL of Sodium Phosphate Buffer and vortexed at high speed for 30 seconds. The tube was then placed in a tube roller and tilt rotated for 10 min. After tilt rotation, the tube was placed on the Magna Spin and the beads were allowed to settle. The supernatant was discarded and the beads were washed three times. The beads were then re-suspended in 100 μL of Sodium Phosphate Buffer and 20 μL of washed beads were distributed into 5 low protein binding Eppendorf tubes (1 mg of beads in each tube). The beads were used for coupling integrins.
(§4) 20 μL of (1 mg) of beads were mixed with 20 μL of integrins (20 μg) and 20 μL of 3 M Ammonium Sulfate solution (final concentration of ammonium sulfate was 1M) to achieve a Bead: Protein ratio of 5 mg:100 μg. The solution was mixed gently and placed in a tube roller and incubated at 37° C. for 16 hours.
(§5) αVβ6/αVβ8 coupled beads were treated with the ligand LAP TGF-β1 (LAP1) at room temperature for 3 hours. The complex (Integrin+Ligand) was then treated with primary Ab (Anti-LAP1 Ab) overnight at 4° C. The whole complex (Integrin+Ligand+Primary Ab) was treated with Secondary Ab conjugated with FITC and incubated for 2 hours. The complex was analyzed by either plate reader or Flow Cytometer.
(§6) 10 μL of αVβ6/αVβ8 coupled beads were taken for the experiment. The concentration of integrins was 10 nM. 10 μL of LAP1 was taken (10 nM for aVβ6 and 20 nM for aVβ8). Reaction between integrin coupled beads and LAP1 was considered as the full reaction, and reaction without LAP1 or a compound of the disclosure was considered as the blank reaction. The samples were incubated in low protein binding tubes at room temperature for 3 hours. The tubes were briefly spun and placed in a Magna spin. The supernatant was removed. The beads were washed with assay buffer twice to remove excess LAP1 and then re-suspended in […] assay buffer containing 1:200 anti-LAP1 Ab (primary Ab). The tubes were placed in a tube roller and incubated at 4° C. overnight. After a brief spin, the tubes were then placed in a Magna spin and the supernatant was removed. The beads were washed with assay buffer twice to remove excess primary Ab and then re-suspended in 150 μL of assay buffer containing 1:500 secondary Ab conjugated with FITC. The tubes were incubated at room temperature for 2 hours in a tube roller. After a brief spin, the tubes were placed in a Magna spin and the supernatant was removed. The beads were washed with assay buffer twice followed by PBS. The beads were then re-suspended in 300 μL of PBS and analyzed by a Flow Cytometer (BD FACSCalibur, Software—BDcell Quest Pro Version 6). […]

The target of the next assay is αvβ6 (Homo sapiens (Human), UniProt P06756+P18564). Nature of the assay: αVβ6–LAP-TGF β1 integrin binding assay (integrin-coupled beads, flow cytometry). The conditions noted are these: for IC50: ligand LAP TGF-β1; for αvβ8/αvβ6: ratio of αvβ8 IC50 to αvβ6 IC50.
Chain of αvβ6 (P06756 31-992): as the sequence (P06756 31-992) above
Chain of αvβ6 (P18564 22-707): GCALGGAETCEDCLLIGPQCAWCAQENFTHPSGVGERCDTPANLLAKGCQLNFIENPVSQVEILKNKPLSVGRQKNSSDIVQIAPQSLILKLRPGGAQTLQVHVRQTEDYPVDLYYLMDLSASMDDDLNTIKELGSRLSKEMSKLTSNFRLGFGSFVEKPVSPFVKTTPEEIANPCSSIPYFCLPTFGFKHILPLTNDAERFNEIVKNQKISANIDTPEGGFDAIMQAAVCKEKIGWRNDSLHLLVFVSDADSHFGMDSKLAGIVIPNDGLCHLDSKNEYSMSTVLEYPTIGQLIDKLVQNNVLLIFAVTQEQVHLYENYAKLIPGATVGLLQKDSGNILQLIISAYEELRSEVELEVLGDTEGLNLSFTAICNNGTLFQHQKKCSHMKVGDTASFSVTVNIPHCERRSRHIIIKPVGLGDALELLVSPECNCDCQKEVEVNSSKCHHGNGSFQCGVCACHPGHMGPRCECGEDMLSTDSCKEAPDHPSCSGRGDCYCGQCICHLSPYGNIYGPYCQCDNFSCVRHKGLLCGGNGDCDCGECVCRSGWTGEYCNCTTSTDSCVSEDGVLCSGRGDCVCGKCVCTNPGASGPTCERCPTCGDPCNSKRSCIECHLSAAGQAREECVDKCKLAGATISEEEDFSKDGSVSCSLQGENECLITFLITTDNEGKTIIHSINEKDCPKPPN
From the text: as §1, §2, §3, §4, §5, §6
On the technique in general: A flow cytometer gives signals particle by particle.

Assay [1] has as its system bleomycin induced lung stiffness. Nature of the assay: Bleomycin induced mouse pulmonary fibrosis model (lung stiffness, pressure-volume curves). Format: in vivo, male C57BL/6 mice. The conditions noted are these: for reversal of bleomycin induced lung stiffness, compared to the vehicle control group: all doses tested (10, 30, 100 mg/kg PO, day 0-21); for reversal of lung stiffness compared to positive control pirfenidone 100 mg/kg BID: mid- and high-dose groups (30 and 100 mg/kg PO). As to the method: Experimental animals are randomly and prospectively assigned to groups. On day 0 and prior to bleomycin induction, animals are administered the first dose of vehicle or a compound of the present disclosure. Following dosing, all animals are anesthetized. A small diameter cannula is inserted into the trachea and saline or bleomycin is slowly infused into the lungs. Group 1 serves as an untreated control group and receives saline only (no bleomycin) on day 0. The other groups receive bleomycin on day 0. Treatments with vehicle (e.g., methylcellulose), positive control (e.g., Pirfenidone), or a compound of the present disclosure are administered once or twice daily via oral gavage (PO). All animals are weighed and evaluated daily for respiratory distress.
Prior to sacrifice, animals are anesthetized and once the animal is determined to be non-responsive a shallow incision is made. The trachea is isolated and a transverse cut is made between tracheal rings approximately half-way through the trachea. A tracheotomy is performed by the insertion of a cannula through the incision secured with surgical suture to the trachea. Following cannulation, the adapter end of the cannula is attached to the mechanical ventilator. The animal is ventilated and following an acclimation period, lung volume is standardized and each animal undergoes a measure of total respiratory impedance.
Ninety-five male C57BL/6 mice were randomly and prospectively assigned to one group of fifteen animals and eight groups of ten animals each. On day 0 and at least one hour prior to bleomycin induction, animals were administered the first dose of vehicle or test-article (i.e., a compound of the present disclosure). At least one hour following dosing, all mice were anesthetized with isoflurane and placed on their backs lying on a table at approximately 60°. A small diameter cannula was inserted into the trachea, and saline or bleomycin was slowly infused into the lungs in a volume of 40 μL.
Group 1 served as an untreated control group and received saline only (no bleomycin) on day 0. Groups 2-9 received 2.25 U/kg of bleomycin on day 0. The animals were then released into a recovery cage and allowed to wake up. From day 0 through day 21, treatments were administered once or twice daily via oral gavage (PO). Vehicle treated animals (Group 2) received 0.4% methylcellulose. Remaining animals received either Pirfenidone at 100 mg/kg (Group 3), Compound A15s at 100 mg/kg (Group 4), 30 mg/kg (Group 5) or 10 mg/kg (Group 6), or Compound A21 at 100 mg/kg (Group 7), 30 mg/kg (Group 8) or 10 mg/kg (Group 9).
All animals were weighed and evaluated daily for respiratory distress (defined as an increase in respiratory rate and/or obvious respiratory effort). Animals with severe respiratory distress, or animals that lost greater than 30% of their total starting body weight, were euthanized within 2 hours of observation.
On Day 21, prior to sacrifice, mice were anesthetized with IP injection of ketamine/xylazine (100 mg/kg, 10 mg/kg). Once the animal was determined to be non-responsive a shallow 2 cm vertical incision was made starting from 1 cm below the chin. The trachea was isolated and a transverse cut was made between tracheal rings approximately half-way through the trachea. A tracheotomy was performed by the insertion of an 18 gauge polyethylene cannula through the incision secured with surgical suture to the trachea. Following cannulation, the adapter end of the cannula was attached to the flexiVent mechanical ventilator. The animal was ventilated at 10 ml/kg tidal volume (VT), 150 breaths per minute and 3 cm H2O positive end expiratory pressure (PEEP). Following a 2-minute acclimation period, lung volume was standardized with 1, 6-second deep inflation to a pressure of 30 cm H2O followed by 2 pressure-volume measurements up to 40 ml/kg. […]

Here are results for nine compounds from patent publication US11685738B2, “Fluorinated tetrahydronaphthyridinyl nonanoic acid derivatives and uses thereof” (OcuTerra Therapeutics, Inc., priority 2015, dated 2023).

Take `O=C(O)CC(CCCCCCc1ccc2c(n1)NCCC2)c1cccc(C(F)(F)F)c1` (single isomer, unassigned) [Compound A21-2]: the IC50 at αvβ8 was 50.3 nM. In addition, on αvβ6, the IC50 worked out at 4.6 nM and the αvβ8/αvβ6 is on record as 10.93.
With `O=C(O)C[C@@H](c1ccc(OC(F)F)nc1)N1CCN(CCCc2ccc3c(n2)NCCC3)C1=O` [Compound A1, (S)-3-(6-(difluoromethoxy)pyridin-3-yl)-3-(2-oxo-3-(3-(5,6,7,8-tetrahydro-1,8-naphthyridin-2-yl)propyl)imidazolidin-1-yl)propanoic acid], the IC50 on αvβ8 came to 13.2 nM. For the same compound, at αvβ6, the IC50 worked out at 8.3 nM and the αvβ8/αvβ6 is 1.59.
For `O=C(O)CC(CCCCCCc1ccc2c(n1)NCCC2)c1cnc2cc(F)c(F)cc2c1` (stereo not shown) [Compound A6, 3-(6,7-difluoroquinolin-3-yl)-9-(5,6,7,8-tetrahydro-1,8-naphthyridin-2-yl)nonanoic acid] the same measures were 24 nM, 8.25 nM and 2.91.
For the compound `O=C(O)CC(CCCCCCc1ccc2c(n1)NCCC2)c1cnc2cc(C(F)(F)F)ccc2c1` (stereo not shown) [Compound A7, 9-(5,6,7,8-tetrahydro-1,8-naphthyridin-2-yl)-3-(7-(trifluoromethyl)quinolin-3-yl)nonanoic acid], the 50% inhibitory concentration (IC50) on αvβ8 came to 80.6 nM. Also, at αvβ6, the IC50 was 11.6 nM and the αvβ8/αvβ6 worked out at 6.93.
With `O=C(O)C[C@@H](c1cccc(C(F)(F)F)c1)N1CCN(CCCc2ccc3c(n2)NCCC3)C1=O` [Compound A15s, (S)-3-(2-oxo-3-(3-(5,6,7,8-tetrahydro-1,8-naphthyridin-2-yl)propyl)imidazolidin-1-yl)-3-(3-(trifluoromethyl)phenyl)propanoic acid], the half-inhibitory concentration (IC50) at αvβ8 was 5.92 nM. Besides, in assay [1] (30 and 100 mg/kg PO, day 0-21), the “reversal of bleomycin induced lung stiffness, mid- and high-dose groups” value was “significant reversal of bleomycin induced lung stiffness”. In assay [1], the “reversal of bleomycin induced lung stiffness, compared to the vehicle control group” value was “reversed bleomycin induced lung stiffness at all doses tested” and the “reversal of lung stiffness compared to positive control pirfenidone 100 mg/kg BID” value was “superior to the positive control pirfenidone”. Also, the “lung stiffness compared to saline treated animal group (no bleomycin)” value in assay [1] (mid-dose group (30 mg/kg PO)) is listed as “indistinguishable from the saline treated animal group”. Moreover, at αvβ6, the IC50 stood at 9.28 nM and the αvβ8/αvβ6 came to 0.64.
On αvβ8, `O=C(O)CC(CCCCCCc1ccc2c(n1)NCCC2)c1cccc(C(F)(F)F)c1` (stereo not shown) [Compound A21] showed an IC50 of 88.2 nM. In assay [1], the “reversal of bleomycin induced lung stiffness, compared to the vehicle control group” value is reported as “reversed bleomycin induced lung stiffness at all doses tested” and the “reversal of lung stiffness compared to positive control pirfenidone 100 mg/kg BID” value is “similar, if not better, reversal of bleomycin induced lung stiffness”. Moreover, on αvβ6, the half-inhibitory concentration (IC50) is 7.64 nM and the αvβ8/αvβ6 is 11.54.
For `O=C(O)CC(CCCCCCc1ccc2c(n1)NCCC2)c1cc(Cl)cc(C(F)(F)F)c1` (stereo not shown) [Compound A24, 3-(3-chloro-5-(trifluoromethyl)phenyl)-9-(5,6,7,8-tetrahydro-1,8-naphthyridin-2-yl)nonanoic acid], the half-inhibitory concentration (IC50) on αvβ8 stood at 35.4 nM; on αvβ6 it was 17.5 nM. For the same compound, the αvβ8/αvβ6 at αvβ6 turned out to be 2.02.
Consider `O=C(O)CC(CCCCCCc1ccc2c(n1)NCCC2)c1cc(C(F)(F)F)ccc1F` (stereo not shown) [Compound A28], for which, at αvβ8, the IC50 amounted to 34.4 nM. Besides, at αvβ6, the IC50 came out at 16.9 nM and the αvβ8/αvβ6 amounted to 2.04.
On to `COc1ccc([C@H](CC(=O)O)N2CCN(CCCc3ccc4c(n3)NCCC4)C2=O)cn1` [Compound A30s], for which, at αvβ6, the αvβ8/αvβ6 amounted to 1.83.

The IC50 is the concentration that gives 50% inhibition. Low readings indicate greater potency, high ones weaker potency.
